In patent US12516080B2, “Remdesivir and remdesivir analogs, solutions, and nanoparticle, liposomal, and microparticle compositions for treating viral infections” (priority 2020, dated 2026):
Where two headings read alike, the source gives them in different places.

How the values were obtained:
[1] = In-vitro plasma stability, mouse plasma; format: in vitro ADME; conditions: compared with remdesivir
Method: (§1) For nucleoside triphosphate analysis, LC-MS/MS was performed by ion-pairing chromatography using LC 20AD UFLC (Shimadzu, Japan) couple with an API 5500 (AB Sciex, USA). The separation was achieved on a 50×2.1 mm Agilent 3.5 μm C18 column. The mobile phase consisted of 3 mM ammonium formate with 10 mM dimethylhexylamine in water (mobile phase A), and 0.1% formic Acid in ACN (mobile phase B). A multi-stage linear gradient initiated with 2% B for 1 min, increased to 95% B in 2 min and maintained with 95% B for 1 min at a flow rate of 0.4 mL/min. Detection was performed on negative ion mode and multiple reaction monitoring modes.
(§2) Remdesivir, analogs and their metabolites alanine metabolite and Nuc were analyzed on an X500R QTOF System (AB Sciex, USA). Chromatographic separation was obtained on a 50×2.1 mm Agilent 3.5 μm C18 column using constant flow rate of 0.6 mL/min. The gradient mobile phase consisted of 0.1% formic acid in water (mobile phase A) and 0.1% formic acid acetonitrile (mobile phase B), running from 5% B to 95% B within 3 min and then maintaining 95% B for 1 min. The eluent was introduced into quadrupole time-of-flight mass spectrometry by electrospray ionization (ESI) operated in positive modes.
(§3) All the analytes were quantified using 10-point standard curves ranging from 5 to 5000 ng/mL.
(§4) To test the in-vitro plasma stability, 5 ul of […] test compound (remdesivir, MMT4-70, MMT4-98, MMT5-1) was added to 495 ul human, hamster, and mouse plasma, respectively. The structures of MMT4-70, MMT4-98, MMT5-1 are shown below. Aliquot of 40 μL was pipetted from the reaction solution and stopped by the addition of 160 μL cold acetonitrile at different sampling time (0, 10 min, 30 min, 60 min and 120 min). The incubation solution was centrifuged at 3500 rpm for 10 minutes to precipitate protein. The supernatant was used for LC/MS/MS analysis.

[2] = In-vitro plasma stability, statements over human, hamster, and mouse plasma; format: in vitro ADME; conditions: different plasmas
Method: as §1, §2, §3, §4

[3] = In-vitro plasma stability, human plasma; format: in vitro ADME
Method: as §1, §2
All the analytes were quantified using 10-point standard curves ranging from 5 to 5000 ng/mL. […]

[4] = Short-time PK test and initial tissue targeting (plasma, blood, lung); format: in vivo; conditions: hamsters, i.v. 10 mg/Kg
Method: as §1, §2, §3
Short-time PK test was used to compare different compounds. Five remdesivir analogs (MMT4-70, MMT4-98, MMT5-1, MMT5-14, and MMT5-15) were compared to remdesivir. The structures of MMT5-14 and MMT5-15 are shown below. Albumin nanocomplexes of the remdesivir analogs were made according to the following procedure: organic phase was prepared by dissolving the synthesized compounds (20 mg) into chloroform (1 ml). 20 ml of marketed HSA solution (5%) was then mixed with organic phase and dispersed vigorously by a rotor-stator homogenizer (Ultra-Turrax T25, 8K rpm-12K rpm, 5 min) to generate a milk-like emulsion. The emulsion was then processed by a high-pressure homogenizer (Nano DeBEE) with the parameters set as pressure=15,000 psi-20,000 psi, condensation temp=5° C., cycles=6. Remaining organic solvent in the product was removed by a rotatory evaporator. The final nano-suspension was filtered with 0.22 μm membrane and freeze dried (primary drying temp=−5° C. for 30 h and secondary drying temp=30° C. for 6 h). The vials were filled with nitrogen before sealing and stored at −20° C.
The formulations and remdesivir (marketed formulation) were i.v. administered to catheterized hamsters with dose of 10 mg/Kg. Each group had two hamsters. At different time points (0.25 hr, 1 hr, 2 hr and 4 hr), plasma was collected for future LC-MS analysis. At 4 hr time point, the hamsters were euthanized and blood and lung were collected for future LC-MS analysis.

[5] = Tissue targeting of formulations (concentration-time profiles and AUC in tissues); format: in vivo; conditions: hamsters, i.v. 10 mg/Kg; for parent compound concentration through all tissues: 0.5-24 hr, short time points
Method: as §1, §2, §3
Besides nano formulation, a cyclodextrin-based formulation was also prepared for MMT5-14. Briefly, 2% cremophor and 2% ethanol was added to dissolve the MMT5-14, followed by mixing with 20% SBE-CD. Two formulated MMT5-14 compounds together with remdesivir (marketed formulation) were i.v. administered to catheterized hamsters with dose as 10 mg/Kg. Each group has two hamsters. At different time points (0.5 hr, 1 hr, 4 hr, 7 hr and 24 hr), the hamsters were euthanized and samples including plasma, blood, blood vessel, heart, intestine, kidney, lung, lymph node, spleen, trachea, and others were collected for future LC-MS analysis.

COVID-19 virus = test: In vitro anti-COVID-19 virus activity of remdesivir (literature); format: cell-based, SARS-CoV-2; conditions: assuming intracellular Nuc-TP accumulates more than 10-fold to extracellular remdesivir
THP-1 cells = test: Cellular uptake of formulations, THP-1 cells; format: cell-based; conditions: 10 μM
Calu-3 cells = test: Cellular uptake of formulations, Calu-3 cells; format: cell-based; conditions: 10 μM
AMJ2-C11 cells = test: Cellular uptake of formulations, AMJ2-C11 cells; format: cell-based; conditions: 10 μM
[6] = marmosets, cited from earlier work
[7] = mice, cited from earlier work
[8] = test system: PBMC, monocytes, Hela, microphage, and HUVEC; conditions: multiple human and rhesus monkey cells; cited from earlier work
B24 cells = conditions: cited from earlier work
human cells = conditions: in vitro metabolism; cited from earlier work
[9] = cited from earlier work

CCCCCCCCCCCCOC(=O)[C@H](C)NP(=O)(OC[C@H]1O[C@@H](c2ccc3c(N)ncnn23)[C@H](O)[C@@H]1O)Oc1ccccc1 (stereo partly drawn) [MMT4-70]
stability taking account of ALA generation [1]: similar/better stability
overall stability compared with remdesivir [2]: more stable than remdesivir

CCCCCCCCCCCCOC(=O)[C@H](C)NP(=O)(OC[C@H]1O[C@@H](c2ccc3c(N)ncnn23)[C@H](O)[C@@H]1O)Oc1cccc2ccccc12 (stereo partly drawn) [MMT4-98]
stability taking account of ALA generation [1]: similar/better stability
overall stability compared with remdesivir [2]: more stable than remdesivir

C[C@H](NP(=O)(OC[C@H]1O[C@@H](c2ccc3c(N)ncnn23)[C@H](O)[C@@H]1O)Oc1cccc2ccccc12)C(=O)OCc1ccccc1 (stereo partly drawn) [MMT5-1]
stability ranking in human plasma [3]: behaved best
stability taking account of ALA generation [1]: similar/better stability
overall stability compared with remdesivir [2]: more stable than remdesivir

CCCCCC/C=C\C/C=C\CCCCCCCCOC(=O)[C@H](C)NP(=O)(OC[C@H]1O[C@@H](c2ccc3c(N)ncnn23)[C@H](O)[C@@H]1O)Oc1ccccc1 (stereo partly drawn) [MMT5-14]
stability and concentration in blood and lung tissue (reason for selection) [4]: balanced stability and high concentration in blood and lung tissue
ALA metabolite concentration in tissues compared with remdesivir [5]: higher
parent compound concentration through all tissues [5]: much higher
AUC of ALA compared with remdesivir ([5]; all analyzed tissues): higher AUCs
AUC of the parent compound compared with remdesivir ([5]; all analyzed tissues): higher AUCs
parent compound, MMT5-14 versus Nano-MMT5-14 groups ([5]; blood vessel, kidney, and trachea): higher
active metabolite NTP accumulation ([5]; blood, lung, and spleen): behaved better
parent compound, MMT5-14 versus Nano-MMT5-14 groups, most tissues ([5]; most tissues): No significance

N#C[C@@]1(c2ccc3c(N)ncnn23)O[C@H](COP(=O)(O)OP(=O)(O)OP(=O)(O)O)[C@@H](O)[C@H]1O [Nuc-TP]
EC50 (COVID-19 virus; read-out: EC50 of intracellular Nuc-TP against COVID-19 virus): > 7.7 µM
EC90 (COVID-19 virus; read-out: EC90 of intracellular Nuc-TP against COVID-19 virus): > 17.6 µM

CCC(CC)COC(=O)[C@H](C)N[P@](=O)(OC[C@H]1O[C@@](C#N)(c2ccc3c(N)ncnn23)[C@H](O)[C@@H]1O)Oc1ccccc1 [remdesivir, Remdesivir]
stability in plasma (plasma concentration change) ([4]; 0.25-4 hr): quickly metabolized
ALA concentration in plasma ([4]; short time points): High concentration
NUC concentration in plasma ([4]; short time points): High concentration
parent compound concentration through all tissues [5]: quickly metabolized
active metabolite NTP accumulation ([5]; blood vessel, heart, and lymph node): better accumulation
NUC concentration in tissues ([5]; several tissues like heart and trachea): high concentration
alanine metabolite concentration in cells (THP-1 cells): higher concentrations
alanine metabolite concentration in cells (Calu-3 cells): higher concentrations
generation of NTP in cells (Calu-3 cells): higher generation
alanine metabolite concentration in cells (AMJ2-C11 cells): higher concentrations
generation of NTP in cells (AMJ2-C11 cells): higher generation
concentration of Nuc-TP in the lung ([6]; i.v. bolus 10 mg/kg remdesivir): 800 to 1500 nM
remdesivir in the lungs ([6]; i.v. bolus 10 mg/kg): not detectable
concentration of Nuc-TP in the lung ([7]; 25-50 mg/kg remdesivir): ~3000 nM
concentration of remdesivir in the lung ([7]; 25-50 mg/kg): did not achieve measurable concentration
intracellular Nuc-TP versus extracellular concentration of remdesivir [8]: 25-100 folds
intracellular Nuc-TP accumulation relative to extracellular remdesivir (B24 cells): more than 3 fold
other metabolites share (human cells): 45%
remdesivir converted into Nuc-TP (human cells): approximately 55%
Nuc-TP concentration in PBMC ([9]; blood cells such as PBMC): 30-40 PM
concentration of Nuc-TP in the lung ([9]; monkey, 10 mg/kg remdesivir): 800 to 1500 nM
concentration of remdesivir in the lung ([9]; monkey, 10 mg/kg): did not achieve measurable concentration
plasma nucleoside monophosphate (Nuc-MP) concentration ([9]; monkey, i.v. 10 mg/kg remdesivir, for 12-24 hrs): 0.5 to 1 µM
remdesivir plasma concentration in 30 min ([9]; monkey, i.v. 10 mg/kg, 30 min): below 0.5 μM
remdesivir plasma concentration ([9]; monkey, i.v. 10 mg/kg, initial): several micromolar
